# How the values were obtained:
# Assay type in all cases: in vivo
# Swiss Albino mice [1] = test: Forelimb grip strength test; conditions: oral once a day for 28 days; measured on day 0 and day 28, one hour after treatment
# Protocol: (§1) Thirty-two 8-week-old male Swiss Albino mice were housed in an animal room at a constant temperature (22±3° C.) and humidity (30%-70%) under a 12:12 h light-dark cycle with standard laboratory diet (Purina 5L79, Rat and Mouse 18% protein; PMI Nutrition International, Brentwood, Mo., USA). Distilled water was provided ad libitum. All animal experiments were reviewed and approved by the Institutional Animal Ethical Committee (IAEC) of Radiant Research Services Pvt. Ltd (Bangalore, India). All research was conducted in accordance with the guidelines of the committee for the purpose of control and supervision of experiments on animals.
# After one week of acclimation, the animals were randomly divided by body weight into four groups (n=8 per group in each test) for oral treatment once a day, at approximately same time each day (±1 hour), for 28 consecutive days: (1) vehicle control or (2) paraxanthine or (3) tyrosine or (4) tyrosine plus paraxanthine. The dose administered to the mice was calculated using US Food and Drug Administration for human equivalence doses (HED), assuming a human weight of 60 kg. […] Food intake was monitored daily while water intake was ad libitum.
# The forelimb grip strength was measured on day 0 and day 28 by using a stainless-steel grill to assess muscle strength (Orchid Scientific & Innovative India Pvt Ltd, India). Grip strength was measured one hour after treatment. […]
# Swiss Albino mice [2] = test: Force swim test, paraxanthine plus taurine study (Example 3); conditions: 30 min force swim on 28th day; oral once a day for 28 days; n=8
# Protocol: as §1, with “Twenty-four” for “Thirty-two”
# (§2) After one week of acclimation, the animals were randomly divided by body weight into three groups (n=8 per group in each test) for oral treatment once a day, at approximately same time each day (±1 hour), for 28 consecutive days: (1) paraxanthine or (2) taurine or (3) taurine plus paraxanthine. The dose administered to the mice was calculated using US Food and Drug Administration for human equivalence doses (HED), assuming a human weight of 60 kg. The following HED was used in this study: 100 mg paraxanthine (ENFINITY®, Ingenious Ingredients, L.P Lewisville, Tex., USA; mouse dose: 20.5 mg/kg bw/day) or 500 mg taurine (mouse dose: 102.75 mg/kg bw/day), or 500 mg taurine (mouse dose: 102.75 mg/kg bw/day) plus 100 mg paraxanthine (ENFINITY®, Ingenious Ingredients, L.P Lewisville, Tex., USA; mouse dose: 20.5 mg/kg bw/day). 0.5% Carboxy Methyl Cellulose sodium was used as vehicle and the test item formulations were prepared daily. Dosing was conducted via oral gavage using disposable polypropylene syringes with sterilized stainless steel gavage tubes. Food intake was monitored daily while water intake was ad libitum.
# During treatment period, training was accomplished on a swimming chamber at a moderate room temperature for 15 mins. The animals were adapted to this procedure daily 1 hr after dosing for 5 days in a week during the treatment period. On 28th day of respective treatment of all the animals were subjected to force swim test. Animals were forced to swim individually for 30 min in a glass jar of height 20 cm, diameter 10 cm, and filled with fresh water to a depth of 15 cm at room temperature. The parameter measured was total time spent in active swimming (the total duration during which the animal swims throughout the experimental period) and duration of immobility (the total time during which the animal is immobile).
# Swiss Albino mice [3] = test: Cook's pole climbing test after scopolamine-induced amnesia; conditions: for Escape latency: Cook's pole climbing test, scopolamine i.p., n=8; for Escape latency, faster than control: relative to vehicle control
# Protocol: Behavioral studies were conducted in mice to examine the learning and memory ability by using Cook's pole test.
# as §1
# as §2, with “four” for “three”, “7” for “28”, “(1) vehicle control or (2)” for “(1)”, “(3) tyrosine” for “(2) taurine”, “(4) tyrosine” for “(3) taurine”, “tyrosine” for “taurine”
# Mice were trained in such a way that the animal had to climb the pole (shock free zone) within 30 seconds to avoid a shock. The shock was preceded by a buzzer that lasted for 15 seconds. The animals were trained to climb the pole at the sound of the buzzer (conditioned avoidance response). At particular intervals, 20 trials were given for each animal and average of the shock avoidance and mistakes were recorded. Trained animals were assayed by conditioned avoidance responses.
# Amnesia was induced by using the scopolamine injection. Scopolamine is an anti-cholinergic and is an attractive amnesic agent for discerning the action of candidate anti amnesic drugs. Scopolamine is a non-selective post synaptic muscarinic receptor blocker and can cause cognitive impairments in rodents and humans via decreasing the effectiveness of ACH in the CNS in animals and humans. Scopolamine can induce the significant deficits in cognitive performance on behavioral tests which makes it a valid pharmacological model for inducing cognitive deficits. In this study to evaluate the cognitive effect, the mice were injected with scopolamine intraperitoneally to induce memory deficits.
# Swiss Albino mice [4] = test: Force swim test, paraxanthine plus tyrosine study (Example 2); conditions: oral once a day for 28 days; for Duration of mobility/active swimming: 30 min force swim on 28th day, n=8
# Protocol: as §1
# as §2, with “four” for “three”, “(1) vehicle control or (2)” for “(1)”, “(3) tyrosine” for “(2) taurine”, “(4) tyrosine” for “(3) taurine”, “tyrosine” for “taurine”
# During treatment period, training was accomplished on a swimming chamber at a moderate room temperature for 15 mins. […] The parameters measured were total time spent in active swimming (the total duration during which the animal swims throughout the experimental period).
SMILES,"Forelimb grip strength (in words, FIG. 1) (Swiss Albino mice [1])",Duration of immobility (Swiss Albino mice [2]),Duration of mobility/active swimming (Swiss Albino mice [2]),Escape latency (Swiss Albino mice [3]; oral once a day for 7 days),"Effect on scopolamine-induced amnesia, memory and learning (in words) (Swiss Albino mice [3]; oral once a day for 7 days)","Escape latency, faster than control (Swiss Albino mice [3])",Duration of mobility/active swimming (Swiss Albino mice [4]),Energy and mood (in words) (Swiss Albino mice [4]; force swim test on 28th day),"Escape latency, slower than paraxanthine (Swiss Albino mice [3]; relative to paraxanthine group)"
Cn1c(=O)[nH]c2ncn(C)c2c1=O [paraxanthine],improved strength over control,21.38 ± 1.92 min,8.63 ± 1.92 min,16.38 ± 2.33 s,reversal of amnesia induced by scopolamine and improved memory and learning,46.3%,8.63 ± 1.92 min,improved energy and mood,
NCCS(=O)(=O)O [taurine],,21.50 ± 2.20 min,8.50 ± 2.20 min,,,,,,
N[C@@H](Cc1ccc(O)cc1)C(=O)O [tyrosine],improved strength at a lesser degree,,,8.25 ± 1.04 s,,30.6%,8.88 ± 1.46 min,,29.3%
